Source: patent publication US5536491A, “^19 F poly aza macrocyclic MRI contrast medium” (Terumo Kabushiki Kaisha, priority 1993, dated 1996)
Each block holds one compound with its values, some of them ahead of it.

How the values were obtained:
[1] = Measurement of imaging sensitivity (phantom experiment), 19F MRI; set-up: key to detectability as image at 500 mM / detectability as image at 100 mM / detectability as image at 50 mM / detectability as image at 10 mM / detectability as image at 5 mM / detectability as image at 1 mM / detectability as image at 500 μM / detectability as image at 100 μM: .smallcircle.: detectable as clear image; Δ: margially detectable as image; x: undetectable; settings: 1.5 T; for detectability as image at 100 μM / detectability as image at 500 μM / detectability as image at 1 mM / detectability as image at 5 mM / detectability as image at 10 mM / detectability as image at 50 mM / detectability as image at 100 mM / detectability as image at 500 mM: 20 min, complexes GRASS TR 10/TE 2 msec, 5-FU spin echo TR 4500/TE 100 msec
Description: Measurement of imaging sensitivity (phantom experiment)
Each of metal complex solution with various concentration of the present invention was sealed in cylindrical acryl phantom with an inner diameter of 1 cm and a height of 10 cm and subject to imaging. SIGNA (1.5 T) available from GE was used as an MRI apparatus, and imaging was performed by using a surface coil 13 cm in diameter for fluorine. A GRASS method was used as a pulse sequence and measurement condition was as followed:
TR (repetition time)=10 msec;
The measurement was performed for 20 min., and the number of acquisition was 937. As references, alkaline aqueous solutions of 5-fluorouracil with various concentrations were imaged by an identical apparatus. […] The imaging time was 20 min., and the number of acquisition was twice. […] In contrast, each metal complex compound of the present […] of 0.5 mM to 5 mM.

[2] = Measurement of relaxation time (T1 and T2 of intramolecular fluorine atoms) by 90 MHz NMR; type: physicochemical; set-up: unit not given here; settings: 10mM aqueous solution

Compound: O=c1[nH]cc(F)c(=O)[nH]1 [Compound 5-FU, 5-fluorouracil, reference compound]
detectability as image at 100 μM [1]: x
detectability as image at 500 μM [1]: x
detectability as image at 1 mM [1]: x
detectability as image at 5 mM [1]: x
detectability as image at 10 mM [1]: x
detectability as image at 50 mM [1]: Δ
detectability as image at 100 mM [1]: Δ
detectability as image at 500 mM [1]: .smallcircle.
concentration required for detection as a clear image ([1]; 20 min imaging): ≥ 500 mM

T1 [2]: 1.73
T2 [2]: 1.58
Compound: gadolinium complex with 1-(2,2,2-trifluoroethyl)-1,4,8,11-tetraazacyclodecane-4,8,11-tetraacetic acid [Compound-1]

Compound: O=C([O-])CN1CCCN(CC(=O)[O-])CCN(Cc2cc(C(F)(F)F)cc(C(F)(F)F)c2)CCCN(CC(=O)[O-])CC1.[Cr+3] [Compound-24, chromium complex of 1-[3,5-bis(trifluoromethyl)benzyl]-1,4,8,11-tetraazacyclotetradecane-4,8,11-triacetic acid]
T1 [2]: 15.5
T2 [2]: 10.4

T1 [2]: 3.27
T2 [2]: 2.83
Compound: O=C(O)CN1CCCN(CC(=O)O)CCN(Cc2ccc(C(C(F)(F)F)(C(F)(F)F)C(F)(F)F)cc2)CCCN(CC(=O)O)CC1.[Gd] [Compound-10, gadolinium complex of 1-[4-[tris(trifluoromethyl)methyl]benzyl]-1,4,8,11-tetraazacyclotetradecane-4,8,11-triacetic acid]

T1 [2]: 12.6
T2 [2]: 9.31
Compound: O=C(O)CN1CCCN(CC(=O)O)CCN(Cc2ccc(/C=C/c3cc(C(F)(F)F)cc(C(F)(F)F)c3)cc2)CCCN(CC(=O)O)CC1.[Gd] [Compound-13, gadolinium complex of 1-[4-[2-trans-(3,5-bis(trifluoromethyl)phenyl)vinyl]benzyl]-1,4,8,11-tetraazacyclotetradecane-4,8,11-triacetic acid]
detectability as image at 100 μM [1]: x
detectability as image at 500 μM [1]: x
detectability as image at 1 mM [1]: Δ
detectability as image at 5 mM [1]: .smallcircle.
detectability as image at 10 mM [1]: .smallcircle.
detectability as image at 50 mM [1]: .smallcircle.
detectability as image at 100 mM [1]: .smallcircle.
detectability as image at 500 mM [1]: .smallcircle.

Compound: O=C(O)CN1CCCN(CC(=O)O)CCN(Cc2cc(C(F)(F)F)cc(C(F)(F)F)c2)CCCN(CC(=O)O)CC1.[Gd] [Compound-4, gadolinium complex of 1-[3,5-bis(trifluoromethyl)benzyl]-,1,4,8,11-tetraazacyclotetradecane-4,8,11-triacetic acid]
detectability as image at 100 μM [1]: x
detectability as image at 500 μM [1]: Δ
detectability as image at 1 mM [1]: .smallcircle.
detectability as image at 5 mM [1]: .smallcircle.
detectability as image at 10 mM [1]: .smallcircle.
detectability as image at 50 mM [1]: .smallcircle.
detectability as image at 100 mM [1]: .smallcircle.
detectability as image at 500 mM [1]: .smallcircle.
T1 [2]: 2.16
T2 [2]: 1.82

Compound: O=C(O)CN1CCCN(Cc2cc(C(F)(F)F)cc(C(F)(F)F)c2)CCN(CC(=O)O)CCCN(Cc2cc(C(F)(F)F)cc(C(F)(F)F)c2)CC1.[Gd] [Compound-5]
detectability as image at 100 μM [1]: x
detectability as image at 500 μM [1]: Δ
detectability as image at 1 mM [1]: .smallcircle.
detectability as image at 5 mM [1]: .smallcircle.
detectability as image at 10 mM [1]: .smallcircle.
detectability as image at 50 mM [1]: .smallcircle.
detectability as image at 100 mM [1]: .smallcircle.
detectability as image at 500 mM [1]: .smallcircle.

Compound: O=C(O)CN1CCCN(CC(=O)O)CCN(CC(=O)O)CCCN(CCN(Cc2cc(C(F)(F)F)cc(C(F)(F)F)c2)Cc2cc(C(F)(F)F)cc(C(F)(F)F)c2)CC1.[Gd] [Compound-20, gadolinium complex of 1-[N""',N""'-bis[3,5-bis(trifluoromethyl)benzyl]aminoethyl]-1,4,8,11-tetraazacyclotetradecane-4,8,11-triacetic acid]
detectability as image at 100 μM [1]: Δ
detectability as image at 500 μM [1]: Δ
detectability as image at 1 mM [1]: .smallcircle.
detectability as image at 5 mM [1]: .smallcircle.
detectability as image at 10 mM [1]: .smallcircle.
detectability as image at 50 mM [1]: .smallcircle.
detectability as image at 100 mM [1]: .smallcircle.
detectability as image at 500 mM [1]: .smallcircle.

Compound: O=C(O)CN1CCCN(CC(=O)O)CCN(Cc2cc(C(F)(F)F)cc(C(F)(F)F)c2)CCCN(CC(=O)O)CC1.[Cu] [Compound-23, copper complex of 1-[3,5-bis(trifluoromethyl)benzyl]-1,4,8,11-tetraazacyclotetradecane-4,8,11-triacetic acid]
detectability as image at 100 μM [1]: x
detectability as image at 500 μM [1]: x
detectability as image at 1 mM [1]: Δ
detectability as image at 5 mM [1]: .smallcircle.
detectability as image at 10 mM [1]: .smallcircle.
detectability as image at 50 mM [1]: .smallcircle.
detectability as image at 100 mM [1]: .smallcircle.
detectability as image at 500 mM [1]: .smallcircle.
T1 [2]: 36.5
T2 [2]: 24.9

Compound: O=C(O)CN1CCCN(CC(=O)O)CCN(Cc2ccc(C(F)(F)F)cc2)CCCN(CC(=O)O)CC1.[Gd] [Compound-3]
detectability as image at 100 μM [1]: x
detectability as image at 500 μM [1]: x
detectability as image at 1 mM [1]: Δ
detectability as image at 5 mM [1]: Δ
detectability as image at 10 mM [1]: .smallcircle.
detectability as image at 50 mM [1]: .smallcircle.
detectability as image at 100 mM [1]: .smallcircle.
detectability as image at 500 mM [1]: .smallcircle.

T1 [2]: 2.11
T2 [2]: 1.79
Compound: O=C(O)CN1CCN(CC(=O)O)CCN(Cc2cc(C(F)(F)F)cc(C(F)(F)F)c2)CCN(CC(=O)O)CC1.[Gd] [Compound-8, gadolinium complex of 1-[3,5-bis(trifluoromethyl)benzyl]1,4,7,10-tetraazacyclododecane-4,7,10-triacetic acid]

T1 [2]: 6.34
T2 [2]: 4.21
Compound: gadolinium complex of 1-[N""'-[3,5-bis(trifluoromethyl)benzyl]aminoethyl]-1,4,8,11-tetraazacyclotetradecane-4,8,11-triacetic acid [Compound-21]
